According to US11802111B2, “Cyclobutyl amide monoacylglycerol lipase modulators” (Janssen Pharmaceutica NV, priority 2020, dated 2023):

target: human MGL from HeLa cells (Homo sapiens (Human), UniProt Q99685); test: MGL in vitro activity assay ([glycerol-1,3-3H]-oleoyl glycerol hydrolysis, activated carbon filtration); assay type: biochemical; conditions: 300 nM [Glycerol-1,3-3H]-oleoyl glycerol, one hour
Method in brief: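 Endogenous human MGL in HeLa cells/homogenates incubated 1 h with test compounds and 300 nM [glycerol-1,3-3H]-oleoyl glycerol. Released 3H-glycerol passing an activated carbon filter counted as activity; screening at 10 μM compound, top IC50 concentration set empirically.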

Chain of human MGL from HeLa cells (Q99685 whole entry): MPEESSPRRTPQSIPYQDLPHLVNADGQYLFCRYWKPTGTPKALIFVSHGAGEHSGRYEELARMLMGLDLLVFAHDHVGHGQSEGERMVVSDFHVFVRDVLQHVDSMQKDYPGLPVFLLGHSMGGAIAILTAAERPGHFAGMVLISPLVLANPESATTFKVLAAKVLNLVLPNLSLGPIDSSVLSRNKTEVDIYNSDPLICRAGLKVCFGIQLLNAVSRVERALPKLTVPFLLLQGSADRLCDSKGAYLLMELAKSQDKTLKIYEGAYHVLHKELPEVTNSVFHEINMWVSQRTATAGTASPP

| IC50 | SMILES |
| --- | --- |
| 1.2 nM | C[C@]1(O)C[C@@H](C(=O)N2CC3(CC(Cc4ccc(C5CC5)cc4)C3)C2)C1 [Example 219, (6-(4-Cyclopropylbenzyl)-2-azaspiro[3.3]heptan-2-yl)((1s,3s)-3-hydroxy-3-methylcyclobutyl)methanone] |
| 1.1 nM | C[C@]1(O)C[C@@H](C(=O)N2CC3(CC(Cc4ccc(OC(F)(F)F)cc4)C3)C2)C1 [Example 220, ((1s,3s)-3-Hydroxy-3-methylcyclobutyl)(6-(4-(trifluoromethoxy)benzyl)-2-azaspiro[3.3]heptan-2-yl)methanone] |
| 5.1 nM | C[C@]1(O)C[C@@H](C(=O)N2CC3(CC(Cc4ccc(OC(F)F)cc4)C3)C2)C1 [Example 221, (6-(4-(Difluoromethoxy)benzyl)-2-azaspiro[3.3]heptan-2-yl)((1s,3s)-3-hydroxy-3-methylcyclobutyl)methanone] |
| 5.1 nM | CCc1cccc(CC2CC3(C2)CN(C(=O)[C@H]2C[C@@](C)(O)C2)C3)c1 [Example 222, (6-(3-Ethylbenzyl)-2-azaspiro[3.3]heptan-2-yl)((1s,3s)-3-hydroxy-3-methylcyclobutyl)methanone] |
| 169 nM | C[C@]1(O)C[C@@H](C(=O)N2CC3(CC(Cc4cccc(C(F)(F)F)n4)C3)C2)C1 [Example 223, ((1s,3s)-3-Hydroxy-3-methylcyclobutyl)(6-((6-(trifluoromethyl)pyridin-2-yl)methyl)-2-azaspiro[3.3]heptan-2-yl)methanone] |
| 27 nM | Cn1ccc2ccc(CC3CC4(C3)CN(C(=O)[C@H]3C[C@@](C)(O)C3)C4)nc21 [Example 224, ((1s,3s)-3-Hydroxy-3-methylcyclobutyl)(6-((1-methyl-1H-pyrrolo[2,3-b]pyridin-6-yl)methyl)-2-azaspiro[3.3]heptan-2-yl)methanone] |
| 119 nM | Cn1cc(CC2CC3(C2)CN(C(=O)[C@H]2C[C@@](C)(O)C2)C3)c(C(F)(F)F)n1 [Example 225, ((1s,3s)-3-Hydroxy-3-methylcyclobutyl)(6-((1-methyl-3-(trifluoromethyl)-1H-pyrazol-4-yl)methyl)-2-azaspiro[3.3]heptan-2-yl)methanone] |
| 2.1 nM | Cc1cccc(C(F)(F)F)c1CC1CC2(C1)CN(C(=O)[C@H]1C[C@@](C)(O)C1)C2 [Example 226, ((1s,3s)-3-Hydroxy-3-methylcyclobutyl)(6-(2-methyl-6-(trifluoromethyl)benzyl)-2-azaspiro[3.3]heptan-2-yl)methanone] |
| 20 nM | Cc1c(F)cccc1CC1CC2(C1)CN(C(=O)[C@H]1C[C@@](C)(O)C1)C2 [Example 227, (6-(3-Fluoro-2-methylbenzyl)-2-azaspiro[3.3]heptan-2-yl)((1s,3s)-3-hydroxy-3-methylcyclobutyl)methanone] |
| 15 nM | Cc1cc(CC2CC3(C2)CN(C(=O)[C@H]2C[C@@](C)(O)C2)C3)ccc1F [Example 228, (6-(4-Fluoro-3-methylbenzyl)-2-azaspiro[3.3]heptan-2-yl)((1s,3s)-3-hydroxy-3-methylcyclobutyl)methanone] |
| 12 nM | Cc1ccc(CC2CC3(C2)CN(C(=O)[C@H]2C[C@@](C)(O)C2)C3)cc1F [Example 229, (6-(3-Fluoro-4-methylbenzyl)-2-azaspiro[3.3]heptan-2-yl)((1s,3s)-3-hydroxy-3-methylcyclobutyl)methanone] |
| 6.4 nM | Cc1ccc(CC2CC3(C2)CN(C(=O)[C@H]2C[C@@](C)(O)C2)C3)c(F)c1 [Example 230, (6-(2-Fluoro-4-methylbenzyl)-2-azaspiro[3.3]heptan-2-yl)((1s,3s)-3-hydroxy-3-methylcyclobutyl)methanone] |
| 14 nM | C[C@]1(O)C[C@@H](C(=O)N2CC3(CC(Cc4cccc(C(F)F)c4)C3)C2)C1 [Example 231, (6-(3-(Difluoromethyl)benzyl)-2-azaspiro[3.3]heptan-2-yl)((1s,3s)-3-hydroxy-3-methylcyclobutyl)methanone] |
| 11 nM | C[C@]1(O)C[C@@H](C(=O)N2CC3(CC(Cc4ccc(C(F)F)cc4)C3)C2)C1 [Example 232, (6-(4-(Difluoromethyl)benzyl)-2-azaspiro[3.3]heptan-2-yl)((1s,3s)-3-hydroxy-3-methylcyclobutyl)methanone] |
| 273 nM | CC(C)(C)c1cccc(CC2CC3(C2)CN(C(=O)[C@H]2C[C@@](C)(O)C2)C3)n1 [Example 233, (6-((6-(tert-Butyl)pyridin-2-yl)methyl)-2-azaspiro[3.3]heptan-2-yl)((1s,3s)-3-hydroxy-3-methylcyclobutyl)methanone] |
| 40 nM | C[C@]1(O)C[C@@H](C(=O)N2CC3(CCC(Cc4ccccc4)CC3)C2)C1 [Example 235, (7-Benzyl-2-azaspiro[3.5]nonan-2-yl)((1s,3s)-3-hydroxy-3-methylcyclobutyl)methanone] |
| 49 nM | Cc1ccccc1CC1CCC2(CC1)CN(C(=O)[C@H]1C[C@@](C)(O)C1)C2 [Example 236, ((1s,3s)-3-Hydroxy-3-methylcyclobutyl)(7-(2-methylbenzyl)-2-azaspiro[3.5]nonan-2-yl)methanone] |

| IC50 | SMILES |
| --- | --- |
| 840 nM | C[C@]1(O)C[C@@H](C(=O)N2CC3(CC(Cn4ccc(C(F)(F)F)n4)C3)C2)C1 [Example 237, ((1s,3s)-3-Hydroxy-3-methylcyclobutyl)(6-((3-(trifluoromethyl)-1H-pyrazol-1-yl)methyl)-2-azaspiro[3.3]heptan-2-yl)methanone] |
| 541 nM | Cc1ccccc1OC1CC2(C1)CN(C(=O)[C@H]1C[C@@](C)(O)C1)C2 [Example 238, ((1s,3s)-3-Hydroxy-3-methylcyclobutyl)(6-(o-tolyloxy)-2-azaspiro[3.3]heptan-2-yl)methanone] |
| 0.4 nM | Cc1cc(OC2CCC3(CC2)CN(C(=O)[C@H]2C[C@@](C)(O)C2)C3)ccc1C(F)(F)F [Example 239, ((1s,3s)-3-Hydroxy-3-methylcyclobutyl)(7-(3-methyl-4-(trifluoromethyl)phenoxy)-2-azaspiro[3.5]nonan-2-yl)methanone] |
| 27 nM | CC(C)c1cccc(OC2CCC3(CC2)CN(C(=O)[C@H]2C[C@@](C)(O)C2)C3)c1 [Example 241, ((1s,3s)-3-Hydroxy-3-methylcyclobutyl)(7-(3-isopropylphenoxy)-2-azaspiro[3.5]nonan-2-yl)methanone] |
| 6.3 nM | CC(C)c1ccc(OC2CCC3(CC2)CN(C(=O)[C@H]2C[C@@](C)(O)C2)C3)cc1 [Example 242, ((1s,3s)-3-Hydroxy-3-methylcyclobutyl)(7-(4-isopropylphenoxy)-2-azaspiro[3.5]nonan-2-yl)methanone] |
| 63 nM | CC(C)(C)c1cccc(OC2CC3(C2)CN(C(=O)[C@H]2C[C@@](C)(O)C2)C3)c1 [Example 244, (6-(3-(tert-Butyl)phenoxy)-2-azaspiro[3.3]heptan-2-yl)((1s,3s)-3-hydroxy-3-methylcyclobutyl)methanone] |
| 329 nM | Cc1ccc(OC2CC3(CCN(C(=O)[C@H]4C[C@@](C)(O)C4)CC3)C2)cc1 [Example 245, ((1s,3s)-3-Hydroxy-3-methylcyclobutyl)(2-(p-tolyloxy)-7-azaspiro[3.5]nonan-7-yl)methanone] |
| 84 nM | CC(C)(C)c1ccc(OC2CC3(C2)CN(C(=O)[C@H]2C[C@@](C)(O)C2)C3)cc1 [Example 246, (6-(4-(tert-Butyl)phenoxy)-2-azaspiro[3.3]heptan-2-yl)((1s,3s)-3-hydroxy-3-methylcyclobutyl)methanone] |
| 14 nM | Cc1cc(OC2CC3(C2)CN(C(=O)[C@H]2C[C@@](C)(O)C2)C3)ccc1C(F)(F)F [Example 247, ((1s,3s)-3-Hydroxy-3-methylcyclobutyl)(6-(3-methyl-4-(trifluoromethyl)phenoxy)-2-azaspiro[3.3]heptan-2-yl)methanone] |
| 114 nM | Cc1ccc(OC2CC3(C2)CN(C(=O)[C@H]2C[C@@](C)(O)C2)C3)cc1C(F)(F)F [Example 248, ((1s,3s)-3-Hydroxy-3-methylcyclobutyl)(6-(4-methyl-3-(trifluoromethyl)phenoxy)-2-azaspiro[3.3]heptan-2-yl)methanone] |
| 20 nM | Cc1cc(C(F)(F)F)ccc1OC1CC2(C1)CN(C(=O)[C@H]1C[C@@](C)(O)C1)C2 [Example 249, ((1s,3s)-3-Hydroxy-3-methylcyclobutyl)(6-(2-methyl-4-(trifluoromethyl)phenoxy)-2-azaspiro[3.3]heptan-2-yl)methanone] |
| 35 nM | Cc1cccc(OC2CC3(C2)CN(C(=O)[C@H]2C[C@@](C)(O)C2)C3)c1C(F)(F)F [Example 250, ((1s,3s)-3-Hydroxy-3-methylcyclobutyl)(6-(3-methyl-2-(trifluoromethyl)phenoxy)-2-azaspiro[3.3]heptan-2-yl)methanone] |
| 7.4 nM | CC(C)c1cccc(OC2CC3(C2)CN(C(=O)[C@H]2C[C@@](C)(O)C2)C3)c1C(F)(F)F [Example 251, ((1s,3s)-3-Hydroxy-3-methylcyclobutyl)(6-(3-isopropyl-2-(trifluoromethyl)phenoxy)-2-azaspiro[3.3]heptan-2-yl)methanone] |
| 47 nM | Cc1c(OC2CC3(C2)CN(C(=O)[C@H]2C[C@@](C)(O)C2)C3)cccc1C(F)(F)F [Example 252, ((1s,3s)-3-Hydroxy-3-methylcyclobutyl)(6-(2-methyl-3-(trifluoromethyl)phenoxy)-2-azaspiro[3.3]heptan-2-yl)methanone] |
| 8.1 nM | CC(C)(C)c1cccc(OC2CCC3(CC2)CN(C(=O)[C@H]2C[C@@](C)(O)C2)C3)c1 [Example 257, (7-(3-(tert-Butyl)phenoxy)-2-azaspiro[3.5]nonan-2-yl)((1s,3s)-3-hydroxy-3-methylcyclobutyl)methanone] |
| 0.2 nM | Cc1cc(C(F)(F)F)ccc1OC1CCC2(CC1)CN(C(=O)[C@H]1C[C@@](C)(O)C1)C2 [Example 258, ((1s,3s)-3-Hydroxy-3-methylcyclobutyl)(7-(2-methyl-4-(trifluoromethyl)phenoxy)-2-azaspiro[3.5]nonan-2-yl)methanone] |
| 3 nM | Cc1ccc(OC2CCC3(CC2)CN(C(=O)[C@H]2C[C@@](C)(O)C2)C3)cc1C(F)(F)F [Example 259, ((1s,3s)-3-Hydroxy-3-methylcyclobutyl)(7-(4-methyl-3-(trifluoromethyl)phenoxy)-2-azaspiro[3.5]nonan-2-yl)methanone] |
